According to patent US10329243B2, “Biphenyl derivative and uses thereof” (XI'AN LIBANG PHARMACEUTICAL CO., LTD, priority 2015, dated 2019):

What was measured:
Format in all cases: in vivo, SD rats
TNF-α [1] = experiment: Determination of TNF-α in brain tissue homogenate, permanent cerebral ischemia model
Description: (§1) Rats were intraperitoneally injected with 10% chloral hydrate 350 mg/kg after anesthesia and opened up at the center of the neck in accordance with the Zea Longa modified method. The right common carotid artery was separated, and the right external carotid artery branches was ligated. A small opening was made at the distal end of the external carotid artery, and a previously prepared thread was inserted through the common carotid artery and the external carotid artery bifurcation into the internal carotid artery, till the anterior end of the middle cerebral artery, with an immersed depth of 18 to 19 mm. The thread was then secured, and the wound was sutured layer by layer. After the operation, the rats were placed in a clean incubator to wake up. […] The sham operation group, the permanent cerebral ischemia model group, and the Example groups were prepared strictly according to the requirements of the cerebral ischemic reperfusion model, while in the sham operation group the thread was put only into the external carotid artery. The animals were allowed to eat and drink freely after waking up. The sham operation group, the permanent cerebral ischemia model group, and the Example groups were administered intravenously the aqueous solution of the biphenyl derivatives in PEG400 at 40 mg/kg (40 mg/kg means that 40 mg of the test compound per kg of the body weight of rats) 30 min before insertion of thread and 12 h after embolism, respectively. The sham operation group and the permanent cerebral ischemia model group were injected with the same amount of blank PEG400 aqueous solution at the same time point.
(§2) 24 hours after the embolism, 8 rats in each group were sacrificed by decapitation, the brain was removed, rinsed with PBS (pH 7.4) at −20°i for 20 min, evenly sliced (with a thickness of 2 mm), stained in a 2% TTC solution at 37°% in the dark for 30 min, fixed in 10% formalin for 24 h, and photographs were taken to analyze the infarct volume. A mixture of femoral arterial and venous blood was drawn from another 8 rats in each group under anesthesia, placed in a low temperature centrifuge at 4° C., centrifuged at 3500 r/min for 20 min, and the supernatant was stored in a refrigerator at −20° C. ready for SOD and MDA detection. After the blood was drawn, a perfusion needle was insert through the apex to the ascending aorta, and saline at 4° C. was rapid infused until the effluent became clear, followed by 4% paraformaldehyde phosphate buffer perfusion for fixation; the brain was removed by craniotomy, and brain tissues 2 mm in front of and behind the optic chiasma were taken and fixed, dehydrated, rendered transparent, impregnated in wax, and embedded. Brain continuous coronary tissue pathological sections were consecutively cut for later use. The remaining 8 rats in each group were sacrificed, brains were removed, the ischemic brain hemispheres were immediately taken on an ice tray, and 10% brain tissue homogenate was prepared for the detection of IL-1β and TNF-α.
(§3) Brain tissue homogenate was hypothermally centrifuged at 3000 rpm for 15 min, the supernatant was taken, and IL-1β and TNF-α were determined in strict accordance with instructions of the kits.

IL-1β [2] = experiment: Determination of IL-1β in brain tissue homogenate, cerebral ischemic reperfusion MCAO model
Description: as §1, with “group, the ischemic reperfusion group, and” for “group, the permanent cerebral ischemia model group, and”, “waking up. After 2 h, the thread was pulled out to achieve reperfusion. The sham” for “waking up. The sham”, “min before reperfusion and 12” for “min before insertion of thread and 12”, “h after reperfusion, respectively. The” for “h after embolism, respectively. The”, “and the ischemic reperfusion group were” for “and the permanent cerebral ischemia model group were”
as §2, with “reperfusion,” for “the embolism,”, “−20° i” for “−20°i”
as §3

SOD [3] = experiment: SOD determination, permanent cerebral ischemia model
Description: as §1, §2
(§4) SOD and MDA were determined strictly in accordance with instructions of the kit.

TNF-α [4] = experiment: Determination of TNF-α in brain tissue homogenate, cerebral ischemic reperfusion MCAO model
Description: as §1, with “group, the ischemic reperfusion group, and” for “group, the permanent cerebral ischemia model group, and”, “waking up. After 2 h, the thread was pulled out to achieve reperfusion. The sham” for “waking up. The sham”, “min before reperfusion and 12” for “min before insertion of thread and 12”, “h after reperfusion, respectively. The” for “h after embolism, respectively. The”, “and the ischemic reperfusion group were” for “and the permanent cerebral ischemia model group were”
as §2, with “reperfusion,” for “the embolism,”, “−20° i” for “−20°i”
as §3

IL-1β [5] = experiment: Determination of IL-1β in brain tissue homogenate, permanent cerebral ischemia model
Description: as §1, §2, §3

SOD [6] = experiment: SOD determination, cerebral ischemic reperfusion MCAO model
Description: as §1, with “group, the ischemic reperfusion group, and” for “group, the permanent cerebral ischemia model group, and”, “waking up. After 2 h, the thread was pulled out to achieve reperfusion. The sham” for “waking up. The sham”, “min before reperfusion and 12” for “min before insertion of thread and 12”, “h after reperfusion, respectively. The” for “h after embolism, respectively. The”, “and the ischemic reperfusion group were” for “and the permanent cerebral ischemia model group were”
as §2, with “reperfusion,” for “the embolism,”, “−20° i” for “−20°i”
as §4

[7] = tested on: rats with cerebral ischemic reperfusion injury; experiment: Relative infarct volume (TTC, imageJ), cerebral ischemic reperfusion MCAO model
Description: as §1, with “group, the ischemic reperfusion group, and” for “group, the permanent cerebral ischemia model group, and”, “waking up. After 2 h, the thread was pulled out to achieve reperfusion. The sham” for “waking up. The sham”, “min before reperfusion and 12” for “min before insertion of thread and 12”, “h after reperfusion, respectively. The” for “h after embolism, respectively. The”, “and the ischemic reperfusion group were” for “and the permanent cerebral ischemia model group were”
as §2, with “reperfusion,” for “the embolism,”, “−20° i” for “−20°i”
The infarct area in each brain section was analyzed and quantified by the imageJ image software, and the ratio of cerebral infarction volume in the overall brain volume was calculated.

[8] = permanent cerebral ischemia model rats, 40 mg/kg intravenously, 10% brain tissue homogenate, 24 h after the embolism
[9] = ischemic reperfusion MCAO rats, 40 mg/kg intravenously, 10% brain tissue homogenate, 24 h after reperfusion
[10] = permanent cerebral ischemia model rats, 40 mg/kg intravenously, serum, 24 h after the embolism
[11] = ischemic reperfusion MCAO rats, 40 mg/kg intravenously 30 min before and 12 h after reperfusion, serum, 24 h after reperfusion
[12] = ischemic reperfusion MCAO rats, 40 mg/kg intravenously 30 min before and 12 h after reperfusion, 24 h after reperfusion
[13] = permanent cerebral ischemia model rats, 40 mg/kg intravenously, 10% brain tissue homogenate, 24 h after the embolism, 40 mg/kg
[14] = ischemic reperfusion MCAO rats, 40 mg/kg intravenously, 10% brain tissue homogenate, 24 h after reperfusion, 40 mg/kg

| Compound | TNF-α content (TNF-α [1]; [8]) | IL-1β content (IL-1β [2]; [9]) | SOD ACTIVITY (U/mL) (SOD [3]; [10]) | TNF-α content (TNF-α [4]; [9]) | IL-1β content (IL-1β [5]; [8]) | SOD ACTIVITY (U/mL) (SOD [6]; [11]) | Relative Brain infarction volume (%) [7, 12] | also measured |
| --- | --- | --- | --- | --- | --- | --- | --- | --- |
| CC(C)c1cc(-c2cc(C(C)C)c(C(=O)O)c(C(C)C)c2)cc(C(C)C)c1O [Example 8 group, 4′-hydroxy-3,3′,5,5′-tetraisopropylbiphenyl-4-carboxylic acid] | 4.39 ± 0.73 ng/mL | 0.64 ± 0.14 ng/mL | 96.90 ± 3.69 U/mL | 4.35 ± 0.46 ng/mL | 0.65 ± 0.08 ng/mL | 96.09 ± 3.33 U/mL | 25.83 ± 2.38 % | – |
| CCCc1cc(-c2cc(CCC)c(O)c(C(C)C)c2)cc(C(C)C)c1O [Example 6 group, 4,4′-dihydroxy-3,3′-diisopropyl-5,5′-dipropylbiphenyl] | 4.99 ± 0.53 ng/mL | 0.64 ± 0.03 ng/mL | 97.21 ± 4.36 U/mL | 4.16 ± 0.44 ng/mL | 0.55 ± 0.05 ng/mL | 96.89 ± 3.49 U/mL | 19.35 ± 4.02 % | – |
| CC(C)c1cc(-c2cc(C(C)C)c(OC(=O)C(N)C(C)C)c(C(C)C)c2)cc(C(C)C)c1O (centres unmarked) [Example 11 group, 4′-hydroxy-3,3′,5,5′-tetraisopropylbiphenyl-2-amino-3-methylbutyrate] | 5.16 ± 0.43 ng/mL | 0.71 ± 0.07 ng/mL | 95.76 ± 3.93 U/mL | 5.31 ± 0.51 ng/mL | 0.76 ± 0.04 ng/mL | 96.71 ± 4.29 U/mL | 23.59 ± 4.11 % | – |
| CC(=O)Oc1c(C(C)C)cc(-c2cc(C(C)C)c(O)c(C(C)C)c2)cc1C(C)C [Example 1 group, 4′-hydroxy-3,3′,5,5′-tetraisopropylbiphenyl-4-acetate] | – | – | – | – | – | – | – | TNF-α content (TNF-α [1]; [13]): 4.25 ± 0.66 ng/mL; IL-1β content (IL-1β [2]; [14]): 0.63 ± 0.12 ng/mL; SOD ACTIVITY (U/mL) (SOD [3]; permanent cerebral ischemia model rats, 40 mg/kg intravenously, serum, 24 h after the embolism, 40 mg/kg): 97.36 ± 4.51 U/mL; TNF-α content (TNF-α [4]; [14]): 4.11 ± 0.72 ng/mL; IL-1β content (IL-1β [5]; [13]): 0.64 ± 0.09 ng/mL; SOD ACTIVITY (U/mL) (SOD [6]; ischemic reperfusion MCAO rats, 40 mg/kg intravenously 30 min before and 12 h after reperfusion, serum, 24 h after reperfusion, 40 mg/kg): 96.78 ± 2.94 U/mL; Relative Brain infarction volume (%) ([7]; ischemic reperfusion MCAO rats, 40 mg/kg intravenously 30 min before and 12 h after reperfusion, 24 h after reperfusion, 40 mg/kg): 18.71 ± 4.69 % |
| 3,3′,5,5′-tetraisopropylbiphenyl-4,4′-bis(oxymethylene phosphate) [Example 3 group] | – | – | – | – | – | – | – | TNF-α content (TNF-α [1]; rat, in vivo, iv, 40 mg/kg): 4.45 ± 0.91 ng/mL; IL-1β content (IL-1β [2]; rat, in vivo, iv, 40 mg/kg): 0.66 ± 0.05 ng/mL; SOD ACTIVITY (U/mL) (SOD [3]; rat, in vivo, iv, 40 mg/kg): 93.61 ± 2.13 U/mL; TNF-α content (TNF-α [4]; rat, in vivo, iv, 40 mg/kg): 4.26 ± 0.54 ng/mL; IL-1β content (IL-1β [5]; rat, in vivo, iv, 40 mg/kg): 0.67 ± 0.08 ng/mL; SOD ACTIVITY (U/mL) (SOD [6]; rat, in vivo, iv, 40 mg/kg): 93.15 ± 3.05 U/mL; Relative Brain infarction volume (%) ([7]; rat, in vivo, iv, 40 mg/kg): 25.41 ± 3.59 % |
